Structures can show the parent of a compound that is named as a salt.
Legend:
[1] = system: Streptococcus pneumoniae (PISP: ATCC 49619); assay: In vitro antibacterial activity, agar two times dilution method, MIC; type: cell-based; details: for MIC Values of Compounds, Streptococcus pneumoniae: agar dilution, PISP ATCC 49619
From the text: (§1) Testing results of in vitro antibacterial activity of some target compounds of the present invention are as follows:
(§2) Drugs: firstly being dissolved in DMSO, and then being diluted to an appropriate concentration with sterile water, and afterwards successively being diluted for twice.
(§3) Determination: referencing the standard of CSSI 2008 version, using a agar two times dilution method, determine the minimum inhibitory concentration (MIC values).
(§4) Feces enterococci (VSE clinical isolates: MEFA 0039); Streptococcus pneumoniae (PISP: ATCC 49619).
(§5) 3. Positive Control Drug is Vancomycin Hydrochloride.

[2] = system: Feces enterococci (VSE clinical isolates: MEFA 0039); assay: as above; type: cell-based; details: for MIC Values of Compounds, Enterococci: agar dilution, VSE clinical isolate MEFA 0039
From the text: as §1, §2, §3, §4, §5

Structure (SMILES) | MIC Values of Compounds, Streptococcus pneumoniae [1] | MIC Values of Compounds, Enterococci [2] | activity against streptococcus pneumoniae relative to vancomycin ([1]; compared with positive control vancomycin) | MIC ([1]; Streptococcus pneumoniae, ATCC49619, read-out: MIC Values of Compounds, Streptococcus pneumoniae) | MIC ([2]; read-out: MIC Values of Compounds, Enterococci)
CNC(CC(C)C)C(=O)NC1C(=O)NC(CC(N)=O)C(=O)NC2C(=O)NC3C(=O)NC(C(=O)NC(C(=O)O)c4cc(O)c(CN5CCOCC5)c(O)c4-c4cc3ccc4O)C(OC3CC(C)(N)C(O)C(C)O3)c3ccc(c(Cl)c3)Oc3cc2cc(c3OC2OC(CO)C(O)C(O)C2OC2CC(C)(NCc3ccc(C(C)C)cc3)C(O)C(C)O2)Oc2ccc(cc2Cl)C1O (centres unmarked) [Compound I13] | 0.25 µg/mL | 1 µg/mL | – | – | –
CCN(CC)Cc1c(O)cc2c(c1O)-c1cc(ccc1O)C1NC(=O)C3NC(=O)C(CC(N)=O)NC(=O)C(NC(=O)C(CC(C)C)NC)C(O)c4ccc(c(Cl)c4)Oc4cc3cc(c4OC3OC(CO)C(O)C(O)C3OC3CC(C)(NCc4ccc(Br)cc4)C(O)C(C)O3)Oc3ccc(cc3Cl)C(OC3CC(C)(N)C(O)C(C)O3)C(NC1=O)C(=O)NC2C(=O)O (centres unmarked) [Compound I10] | 0.25 µg/mL | 2 µg/mL | – | – | –
CC(C)CC1C(=O)N(C2C(=O)NC(CC(N)=O)C(=O)NC3C(=O)NC4C(=O)NC(C(=O)NC(C(=O)O)c5cc(O)c(CN6CCOCC6)c(O)c5-c5cc4ccc5O)C(OC4CC(C)(N)C(O)C(C)O4)c4ccc(c(Cl)c4)Oc4cc3cc(c4OC3OC(CO)C(O)C(O)C3OC3CC(C)(NCc4cccc(Br)c4)C(O)C(C)O3)Oc3ccc(cc3Cl)C2O)CN1C (centres unmarked) [II6] | 0.25 µg/mL | 2 µg/mL | – | – | –
CCN(CC)Cc1c(O)cc2c(c1O)-c1cc(ccc1O)C1NC(=O)C3NC(=O)C(CC(N)=O)NC(=O)C(N4CN(C)C(CC(C)C)C4=O)C(O)c4ccc(c(Cl)c4)Oc4cc3cc(c4OC3OC(CO)C(O)C(O)C3OC3CC(C)(NCc4ccccc4Br)C(O)C(C)O3)Oc3ccc(cc3Cl)C(OC3CC(C)(N)C(O)C(C)O3)C(NC1=O)C(=O)NC2C(=O)O (centres unmarked) [II2] | 0.5 µg/mL | 2 µg/mL | – | – | –
CNC(CC(C)C)C(=O)NC1C(=O)NC(CC(N)=O)C(=O)NC2C(=O)NC3C(=O)NC(C(=O)NC(C(=O)O)c4cc(O)c(CN5CCOCC5)c(O)c4-c4cc3ccc4O)C(OC3CC(C)(N)C(O)C(C)O3)c3ccc(c(Cl)c3)Oc3cc2cc(c3OC2OC(CO)C(O)C(O)C2OC2CC(C)(NCc3ccc(OC)cc3)C(O)C(C)O2)Oc2ccc(cc2Cl)C1O (centres unmarked) [Compound I12] | 1 µg/mL | 2 µg/mL | – | – | –
CCCCNCc1c(O)cc2c(c1O)-c1cc(ccc1O)C1NC(=O)C3NC(=O)C(CC(N)=O)NC(=O)C(NC(=O)C(CC(C)C)NC)C(O)c4ccc(c(Cl)c4)Oc4cc3cc(c4OC3OC(CO)C(O)C(O)C3OC3CC(C)(NCc4ccc(Br)cc4)C(O)C(C)O3)Oc3ccc(cc3Cl)C(OC3CC(C)(N)C(O)C(C)O3)C(NC1=O)C(=O)NC2C(=O)O (centres unmarked) [Compound I11] | 0.25 µg/mL | 1 µg/mL | – | – | –
CCCCNCc1c(O)cc2c(c1O)-c1cc(ccc1O)C1NC(=O)C3NC(=O)C(CC(N)=O)NC(=O)C(NC(=O)C(CC(C)C)NC)C(O)c4ccc(c(Cl)c4)Oc4cc3cc(c4OC3OC(CO)C(O)C(O)C3OC3CC(C)(NCc4ccc(C(C)C)cc4)C(O)C(C)O3)Oc3ccc(cc3Cl)C(OC3CC(C)(N)C(O)C(C)O3)C(NC1=O)C(=O)NC2C(=O)O (centres unmarked) [Compound I14] | ≤0.031 µg/mL | 0.5 µg/mL | more four times than vancomycin | – | –
CN[C@H](CC(C)C)C(=O)N[C@H]1C(=O)N[C@@H](CC(N)=O)C(=O)N[C@H]2C(=O)N[C@H]3C(=O)N[C@H](C(=O)N[C@H](C(=O)O)c4cc(O)cc(O)c4-c4cc3ccc4O)[C@H](O)c3ccc(c(Cl)c3)Oc3cc2cc(c3O[C@@H]2O[C@H](CO)[C@@H](O)[C@H](O)[C@H]2O[C@H]2C[C@](C)(N)[C@H](O)[C@H](C)O2)Oc2ccc(cc2Cl)[C@H]1O [vancomycin hydrochloride, reference compound] | – | – | – | 0.125 µg/mL | 0.25 µg/mL

— patent US9982019B2, “Glycopeptide compound or pharmaceutical salt thereof and method for preparing same, and pharmaceutical compositions and applications thereof” (priority 2012, dated 2018)
